Assay results published in patent publication US20030229140A1, “Herbal molecule as potential anti-leukemic drug” (priority 2002, published 2003).
Where two headings read alike, the source gives them in different places.

Legend:
[1] = test system: Molt 4 (T lymphoid cell line); experiment: Growth inhibition of T-lymphoid cell line Molt-4 by CA; assay type: cell-based
Text: Culture of T-Lymphoid cell line Molt-4. This cell line was obtained from American Type culture collection (ATCC), VA, USA and grown in vitro as described for the cell line K562.

[2] = test system: CML patient's leukemic cells; experiment: Analysis of cell cycle progression and apoptosis by flow cytometry; assay type: cell-based, human
Procedure: Analysis of cell cycle progression and apoptosis by Flow cytometry PBMC of a CML patient was cultured in RPMI-1640 medium supplemented with 10% […] fetal bovine serum in the presence or absence of CA (100.0 μg/ml) for 48 hr. at 37° C. in 5% CO2. Cells were fixed with 40% ethanol treated with 500 μg/ml Rnase A, and then with 69 μM propidium iodide for analysis of DNA content by Flow Cytometry as described (Mitra et al., Molecular Medicine, 6:527-541, 2000).

Normal PBMC = experiment: Growth inhibition of normal individuals' PBMC by CA/PCQ; assay type: cell-based, human; settings: Homo sapiens; for inhibition at 50 µg/mL: 50.0 μg/ml; for inhibition at 100 µg/mL: 100.0 μg/ml
Text: Preparation of peripheral blood mononuclear cells (PBMC) from normal individuals. Whole blood was collected and mononuclear cells were separated by Ficoll/Hypaque density gradient centrifugation.

leukemic cells = experiment: Biological activity (destruction of leukemic cells) of Piper betel fractions and HPLC peaks; assay type: cell-based; settings: fractions, zones and HPLC peaks of Piper betel leaf extract
Procedure: Collected material was examined for biological activity i.e. destruction of leukemic cells. […] 10 gm of above-mentioned material was loaded on Sephadex LH-20 column and chromatographed with water, water-methanol (1:1) and methanol as eluent. Three different fractions thus obtained from three different solvent systems were separately checked for biological activity. […] The column was equilibrated with methanol-water-acetic acid (23:76:1), flow rate was maintained at 1.0 ml per min and peaks were identified at 280 nm. According to the retention time (RE) different peaks could be divided into three zones, ZA/ZB and ZC (FIG. 1). ZA had 4 major peaks whereas ZB had very small to moderate 10 peaks and ZC had two distinct peaks. It was convenient to observe biological activity of three zones AA, ZB and ZC, which were separately tested on leukemia cells for destructive activity.

AML patient's PBMC = experiment: Incubation of AML patient's PBMC with CA, viable cell count; assay type: cell-based, human
Procedure: Whole blood (10 ml each) was drawn from previously diagnosed myeloid leukemic patients, one patient was diagnosed as AML and the other one was diagnosed as CML. Mononuclear cells were separated by Ficoll/hypaque density gradient centrifugation. PBMC (1×10^5-2×10^6/ml) of myeloid leukemia patients were incubated with varied concentrations of CA for 48 hours at 37° C. in 5% CO2. Cells were then washed and counted for viability.

[3] = test system: Promonocytic cell line (U937); experiment: Incubation of CD33+ promonocytic cell line U937 with CA/PCQ, viable cell count; assay type: cell-based; settings: Homo sapiens; for inhibition at 25 µg/mL: U937, 25.0 μg/ml; for inhibition at 50 µg/mL: U937, 50.0 μg/ml; for inhibition at 100 µg/mL: U937, 100.0 μg/ml
Procedure: Culture of Promonocytic cell line U937. […] This cell line is CD33^+. Incubation of CD33^+ cell line U937 with CA. […] Cells were then washed and counted for viability.

[4] = CML patient's leukemic cells, CA 100.0 μg/ml, 2 days
[5] = 24 h, Normal PBMC, 1 day, 1 × 10^5 cells per ml per well, read-out: Percentage inhibition of Cell Growth
[6] = 48 h, Normal PBMC, 2 days, 1 × 10^5 cells per ml per well, read-out: Percentage inhibition of Cell Growth
[7] = 72 h, Normal PBMC, 3 days, 1 × 10^5 cells per ml per well, read-out: Percentage inhibition of Cell Growth
[8] = U-937, 24 h, 1 day, 1 × 10^5 cells per ml per well, read-out: Percentage inhibition of Cell Growth
[9] = U-937, 48 h, 2 days, 1 × 10^5 cells per ml per well, read-out: Percentage inhibition of Cell Growth
[10] = U-937, 72 h, 3 days, 1 × 10^5 cells per ml per well, read-out: Percentage inhibition of Cell Growth
[11] = U-937, 72 h, 3 days, 2×10^5 cells per ml per well, read-out: % Inhibition of cell growth (After 3 days of incubation)

O=C(/C=C/c1ccc(O)c(O)c1)O[C@@H]1C[C@](O)(C(=O)O)C[C@@H](O)[C@H]1O (single isomer, unassigned) [CA, chlorogenic acid or 3-Caffeoyl quinic acid]
destruction of cells (in words) [1]: requires higher dose | apoptosis by cell-cycle analysis (in words) ([2]; 100.0 μg/ml, two days of culture): caused apoptosis | percentage of cells in (>2n DNA) [2, 4]: 56.35% | percentage of cells in G0/G1 (2n DNA) [2, 4]: 33.13% | percentage of cells in Sub G0/G1 (apoptotic 2n DNA) [2, 4]: 10.64% | inhibition at 50 µg/mL (Normal PBMC; [5]): 6.66% | inhibition at 100 µg/mL (Normal PBMC; [5]): 6.66% | inhibition at 50 µg/mL (Normal PBMC; [6]): 10.3% | inhibition at 100 µg/mL (Normal PBMC; [6]): 17.2% | inhibition at 50 µg/mL (Normal PBMC; [7]): 15.2% | inhibition at 100 µg/mL (Normal PBMC; [7]): 19.5% | inhibition at 25 µg/mL (Normal PBMC; 72 h, Normal individual's PBMC, 25.0 μg/ml, 3 days, 2×10^5 cells per ml per well, read-out: % Inhibition of cell growth (After 3 days of incubation)): 1.03% | inhibition at 50 µg/mL (Normal PBMC; 72 h, Normal individual's PBMC, 3 days, 2×10^5 cells per ml per well, read-out: % Inhibition of cell growth (After 3 days of incubation)): 1.03% | biological activity i.e. destruction of leukemic cells (in words) (leukemic cells): Except peak no 6 (Rt 9.16 min) no other peaks had shown detectable activity | inhibition at 20 µg/mL (AML patient's PBMC; Homo sapiens, AML patient's PBMC, 20 μg/ml, 48 hr, 1 × 10^5 cells/ml/well, read-out: Percent inhibition of cell growth after 48 hr of incubation): 9.5% | inhibition at 50 µg/mL (AML patient's PBMC; Homo sapiens, AML patient's PBMC, 50 μg/ml, 48 hr, 1 × 10^5 cells/ml/well, read-out: Percent inhibition of cell growth after 48 hr of incubation): 16.6% | inhibition at 100 µg/mL (AML patient's PBMC; Homo sapiens, AML patient's PBMC, 100 μg/ml, 48 hr, 1 × 10^5 cells/ml/well, read-out: Percent inhibition of cell growth after 48 hr of incubation): 73.8% | inhibition at 500 µg/mL (AML patient's PBMC; Homo sapiens, AML patient's PBMC, 500 μg/ml, 48 hr, 1 × 10^5 cells/ml/well, read-out: Percent inhibition of cell growth after 48 hr of incubation): 85.7% | destruction of cells (in words) (AML patient's PBMC; PBMC of myeloid leukemia patients (AML)): destroyed | inhibition at 10 µg/mL ([3]; U-937, 24 h, U937, 10.0 μg/ml, 1 day, 1 × 10^5 cells per ml per well, read-out: Percentage inhibition of Cell Growth): 8.33% | inhibition at 25 µg/mL [3, 8]: 16.7% | inhibition at 50 µg/mL [3, 8]: 25% | inhibition at 100 µg/mL [3, 8]: 45.8% | inhibition at 10 µg/mL ([3]; U-937, 48 h, U937, 10.0 μg/ml, 2 days, 1 × 10^5 cells per ml per well, read-out: Percentage inhibition of Cell Growth): 44% | inhibition at 25 µg/mL [3, 9]: 52% | inhibition at 50 µg/mL [3, 9]: 64% | inhibition at 100 µg/mL [3, 9]: 96% | inhibition at 10 µg/mL ([3]; U-937, 72 h, U937, 10.0 μg/ml, 3 days, 1 × 10^5 cells per ml per well, read-out: Percentage inhibition of Cell Growth): 57.1% | inhibition at 25 µg/mL [3, 10]: 71.4% | inhibition at 25 µg/mL [3, 11]: 16.7% | inhibition at 50 µg/mL [3, 10]: 89.3% | inhibition at 50 µg/mL [3, 11]: 25% | inhibition at 100 µg/mL [3, 10]: 100% | inhibition at 10 µg/mL ([3]; U-937, U937, 10 μg/ml, 48 hr, 1 × 10^5 cells/ml/well, read-out: Percent inhibition of cell growth after 48 hr of incubation): 25% | inhibition at 15 µg/mL ([3]; U-937, U937, 15 μg/ml, 48 hr, 1 × 10^5 cells/ml/well, read-out: Percent inhibition of cell growth after 48 hr of incubation): 43.7%
